# Experimental data published in ChEMBL document CHEMBL5233285, “Recent Update on the Development of PCSK9 Inhibitors for Hypercholesterolemia Treatment” (J Med Chem, 2022).
# Numbered stars: 1 amine (or outer) side, 2 acyl side, 3 side chain; on linkers, the order of the positions; unused ones are H or OH. Square brackets hold non-standard residues; d marks the D form. Peptide text beside a SMILES is read from it. X1 = O=C(C1(N[*:1])CCC(c2ccccc2)CC1)[*:2]; hArg = N=C(N)NCCCC[C@H](N)C(=O)O
# Legend:
# [1] = target: T1, Proprotein convertase subtilisin/kexin type 9 (Homo sapiens, UniProt Q8NBP7); assay: Inhibition of PCSK9 mediated LDLR degradation in human HepG2 cells assessed as restoration of LDLR; type: cell-based
# [2] = target: T1, Proprotein convertase subtilisin/kexin type 9; assay: Inhibition of human PCSK9 preincubated for 30 mins followed by LDLR addition and measured after 2 hrs by TR-FRET assay
# [3] = target: T1, Proprotein convertase subtilisin/kexin type 9; assay: Binding affinity to human PCSK9
# [4] = target: T1, Proprotein convertase subtilisin/kexin type 9; assay: Inhibition of human PCSK9 preincubated for 30 mins followed by ab20 addition and measured after 2 hrs by TR-FRET assay
# [5] = target: T2, PCSK9/LDLR (Homo sapiens, UniProt Q8NBP7); assay: Inhibition of PCSK9-LDLR (unknown origin) protein-protein interaction; type: protein assay
# [6] = target: T3, 3-hydroxy-3-methylglutaryl-coenzyme A reductase (Homo sapiens, UniProt P04035); assay: Inhibition of HMG CoA reductase (unknown origin)
# T3 sequence (P04035 whole entry): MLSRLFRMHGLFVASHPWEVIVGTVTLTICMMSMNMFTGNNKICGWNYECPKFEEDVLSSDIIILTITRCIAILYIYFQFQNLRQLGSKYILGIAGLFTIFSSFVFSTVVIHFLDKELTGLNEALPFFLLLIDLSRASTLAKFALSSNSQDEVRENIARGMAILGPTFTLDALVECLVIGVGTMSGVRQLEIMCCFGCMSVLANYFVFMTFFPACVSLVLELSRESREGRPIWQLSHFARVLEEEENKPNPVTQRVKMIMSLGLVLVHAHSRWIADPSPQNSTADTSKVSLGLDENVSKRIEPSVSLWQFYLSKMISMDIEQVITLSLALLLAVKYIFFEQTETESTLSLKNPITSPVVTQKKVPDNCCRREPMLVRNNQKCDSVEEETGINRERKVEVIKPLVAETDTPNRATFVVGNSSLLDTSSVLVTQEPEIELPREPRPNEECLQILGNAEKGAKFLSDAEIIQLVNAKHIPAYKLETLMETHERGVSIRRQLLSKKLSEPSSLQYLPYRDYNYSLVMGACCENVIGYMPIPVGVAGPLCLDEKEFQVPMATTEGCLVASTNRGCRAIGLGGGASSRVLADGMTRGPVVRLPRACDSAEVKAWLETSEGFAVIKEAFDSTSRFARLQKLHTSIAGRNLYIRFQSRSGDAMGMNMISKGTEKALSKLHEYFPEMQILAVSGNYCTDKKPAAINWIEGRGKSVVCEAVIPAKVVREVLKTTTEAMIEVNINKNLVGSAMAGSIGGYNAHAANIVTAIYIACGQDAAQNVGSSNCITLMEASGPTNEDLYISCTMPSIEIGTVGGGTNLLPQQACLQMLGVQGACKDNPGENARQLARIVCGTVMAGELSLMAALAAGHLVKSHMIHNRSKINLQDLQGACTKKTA
# [7] = target: T1, Proprotein convertase subtilisin/kexin type 9; assay: Inhibition of human PCSK9 preincubated for 30 mins followed by EGF(A) addition and measured after 2 hrs by TR-FRET assay
# [8] = target: T1, Proprotein convertase subtilisin/kexin type 9; assay: Inhibition of human PCSK9
# [9] = target: T1, Proprotein convertase subtilisin/kexin type 9; assay: Inhibition of PCSK9 in human HepG2 cells assessed as restoration of LDLR at 1 uM relative to control; type: cell-based
# [10] = target: T1, Proprotein convertase subtilisin/kexin type 9; assay: Inhibition of PCSK9 in human HepG2 cells assessed as increase in LDL uptake at 1 uM relative to control; type: cell-based
# [11] = system: Homo sapiens; assay: Hypocholesterolemic activity in human assessed as reduction in TC level at 300 mg, QD administered for 28 days; type: functional; design: scale not given: the % may be the effect or the level left; conditions: time 28 day
# [12] = system: Homo sapiens; assay: Hypocholesterolemic activity in human assessed as reduction in LDL-C level at 300 mg, QD administered for 28 days; type: functional; design: scale not given: the % may be the effect or the level left; conditions: time 28 day
# [13] = system: Homo sapiens; assay: Hypocholesterolemic activity in human assessed as reduction in ApoB level at 300 mg, QD administered for 28 days; type: functional; design: scale not given: the % may be the effect or the level left; conditions: time 28 day
# [14] = species: Homo sapiens; assay: Hypocholesterolemic activity in human assessed as reduction in LDL-C level at 10 to 20 mg; type: functional; design: scale not given: the % may be the effect or the level left; conditions: dose 10-20 mg
# [15] = target: T1, Proprotein convertase subtilisin/kexin type 9; assay: Binding affinity to PCSK9 (unknown origin)
# [16] = target: T2, PCSK9/LDLR; assay: Inhibition of PCSK9-LDLR protein-protein interaction in human HepG2 cells assessed as increase in LDL uptake; type: cell-based
# [17] = target: Proprotein convertase subtilisin/kexin type 9 (Mus musculus, UniProt Q80W65); assay: Binding affinity to mouse PCSK9
# Chain of Proprotein convertase subtilisin/kexin type 9 (Mus musculus, UniProt Q80W65) (Q80W65 35-155 limits assumed): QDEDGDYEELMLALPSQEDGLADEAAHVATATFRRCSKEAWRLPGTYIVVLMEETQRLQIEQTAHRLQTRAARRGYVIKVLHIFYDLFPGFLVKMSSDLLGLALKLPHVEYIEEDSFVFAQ
# Chain of Proprotein convertase subtilisin/kexin type 9 (Mus musculus, UniProt Q80W65) (Q80W65 156-694 limits assumed): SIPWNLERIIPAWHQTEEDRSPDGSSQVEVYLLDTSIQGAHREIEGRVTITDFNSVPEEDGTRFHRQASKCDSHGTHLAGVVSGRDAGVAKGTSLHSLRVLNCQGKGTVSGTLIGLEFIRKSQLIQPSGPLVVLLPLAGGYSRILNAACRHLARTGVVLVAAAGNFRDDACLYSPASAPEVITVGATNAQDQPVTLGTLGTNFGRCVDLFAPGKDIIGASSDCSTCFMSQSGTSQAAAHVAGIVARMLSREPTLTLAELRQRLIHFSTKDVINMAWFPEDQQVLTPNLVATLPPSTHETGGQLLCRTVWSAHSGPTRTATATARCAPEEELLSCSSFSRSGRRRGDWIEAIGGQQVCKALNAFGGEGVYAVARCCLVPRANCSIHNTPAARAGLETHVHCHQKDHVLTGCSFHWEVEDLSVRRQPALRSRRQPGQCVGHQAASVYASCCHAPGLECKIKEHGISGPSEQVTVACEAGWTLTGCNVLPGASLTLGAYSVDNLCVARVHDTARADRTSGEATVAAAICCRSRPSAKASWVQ
# T1 sequence (Q8NBP7 31-152 limits assumed): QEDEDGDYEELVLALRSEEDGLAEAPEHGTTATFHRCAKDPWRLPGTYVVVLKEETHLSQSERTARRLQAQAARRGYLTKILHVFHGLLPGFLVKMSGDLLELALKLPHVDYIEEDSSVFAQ
# T1 sequence (Q8NBP7 153-692 limits assumed): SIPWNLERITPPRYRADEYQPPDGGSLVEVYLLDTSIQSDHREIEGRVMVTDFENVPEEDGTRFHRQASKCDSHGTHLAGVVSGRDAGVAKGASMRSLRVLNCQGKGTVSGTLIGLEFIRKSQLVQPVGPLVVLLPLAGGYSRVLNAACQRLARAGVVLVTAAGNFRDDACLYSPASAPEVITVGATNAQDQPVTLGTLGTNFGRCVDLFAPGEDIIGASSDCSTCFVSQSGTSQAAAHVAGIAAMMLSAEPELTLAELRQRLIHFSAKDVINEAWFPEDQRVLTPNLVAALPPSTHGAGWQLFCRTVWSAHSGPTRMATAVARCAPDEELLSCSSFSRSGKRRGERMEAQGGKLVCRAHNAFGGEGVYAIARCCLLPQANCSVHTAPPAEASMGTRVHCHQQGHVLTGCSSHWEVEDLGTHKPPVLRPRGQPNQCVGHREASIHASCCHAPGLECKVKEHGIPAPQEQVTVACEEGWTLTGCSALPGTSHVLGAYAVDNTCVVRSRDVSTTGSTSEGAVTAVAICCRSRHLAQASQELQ
# T2 sequence (Q8NBP7 31-152 limits assumed): as the sequence (Q8NBP7 31-152 limits assumed) above
# T2 sequence (Q8NBP7 153-692 limits assumed): as the sequence (Q8NBP7 153-692 limits assumed) above
# T2 sequence (P01130 22-860 partner limits assumed): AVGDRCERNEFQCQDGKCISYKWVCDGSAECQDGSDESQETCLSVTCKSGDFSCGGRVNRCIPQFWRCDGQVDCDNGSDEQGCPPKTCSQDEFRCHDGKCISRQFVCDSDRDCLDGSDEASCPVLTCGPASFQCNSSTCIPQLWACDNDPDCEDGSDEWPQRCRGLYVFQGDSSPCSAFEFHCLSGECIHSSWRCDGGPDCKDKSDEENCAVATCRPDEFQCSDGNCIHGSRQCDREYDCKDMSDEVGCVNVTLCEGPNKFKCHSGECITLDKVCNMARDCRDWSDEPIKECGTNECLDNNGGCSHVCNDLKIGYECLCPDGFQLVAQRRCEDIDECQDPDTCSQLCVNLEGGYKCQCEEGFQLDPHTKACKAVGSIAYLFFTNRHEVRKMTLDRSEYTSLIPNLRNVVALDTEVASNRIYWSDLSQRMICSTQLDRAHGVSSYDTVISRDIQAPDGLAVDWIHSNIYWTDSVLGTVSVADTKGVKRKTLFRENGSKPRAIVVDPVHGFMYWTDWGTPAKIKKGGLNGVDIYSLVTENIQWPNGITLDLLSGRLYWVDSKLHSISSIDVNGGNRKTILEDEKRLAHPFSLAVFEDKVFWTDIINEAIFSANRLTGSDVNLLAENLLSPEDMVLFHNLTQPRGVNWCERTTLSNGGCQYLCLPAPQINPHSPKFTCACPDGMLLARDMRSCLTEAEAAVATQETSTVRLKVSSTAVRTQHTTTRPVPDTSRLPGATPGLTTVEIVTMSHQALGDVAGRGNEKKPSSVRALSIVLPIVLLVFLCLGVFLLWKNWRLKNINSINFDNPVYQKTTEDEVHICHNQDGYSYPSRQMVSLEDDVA
structure (smiles),measurement,setting,value
CC[C@H](C)[C@H](NC(=O)[C@H](CCCCNC(=N)N)NC(=O)[C@@H](NC(=O)[C@H](CC(C)C)NC(=O)[C@H](CC(N)=O)NC(=O)[C@H](Cc1c[nH]c2ccccc12)NC(=O)CNC(=O)[C@@H]1CCCN1C(=O)[C@H](Cc1ccccc1)NC(=O)[C@H](CO)NC(=O)[C@H](CCC(=O)O)NC(=O)[C@@H](N)CCSC)C(C)C)C(=O)NCC(=O)N[C@@H](CC(C)C)C(=O)N[C@@H](CC(C)C)C(=O)N[C@@H](CCCNC(=N)N)C(=O)O (H-MESFPGWNLV[hArg]IGLLR-OH),inhibition,[1],70%
same,IC50,[2],25000 nM
same,Kd,[3],700 nM
same,IC50,[4],840 nM
CC[C@H](C)[C@H](NC(=O)[C@@H](N)CC(C)C)C(=O)N[C@@H](CC(C)C)C(=O)N1CCC[C@H]1C(=O)N[C@@H](CCCCN)C(=O)N[C@@H](Cc1c[nH]cn1)C(=O)N[C@@H](CO)C(=O)N[C@@H](C)C(=O)N[C@@H](CC(=O)O)C(=O)O (H-LILPKHSAD-OH),IC50,[5],1600 nM
same,IC50,[6],147000 nM
CC[C@H](C)[C@H](NC(=O)[C@H](CCC(N)=O)NC(=O)[C@H](CC(C)C)NC(=O)[C@H](CC(N)=O)NC(=O)[C@H](Cc1c[nH]c2ccccc12)NC(=O)[C@@H]1CCCN1C(=O)[C@H](CC(C)C)NC(=O)[C@H](CCCNC(=N)N)NC(=O)[C@H](CS)NC(=O)CNC(=O)[C@H](CO)NC(=O)CNC(=O)[C@@H](NC(=O)[C@H](Cc1c[nH]c2ccccc12)NC(=O)[C@H](CC(=O)O)NC(=O)[C@H](CC(C)C)NC(=O)[C@H](Cc1ccc(O)cc1)NC(=O)[C@H](CCC(=O)O)NC(=O)[C@H](CCC(=O)O)NC(=O)[C@H](Cc1c[nH]c2ccccc12)NC(=O)[C@H](CO)NC(=O)[C@@H](NC(=O)[C@H](Cc1ccccc1)NC(=O)[C@@H](NC(=O)[C@@H](N)[C@@H](C)O)C(C)C)[C@@H](C)O)C(C)C)C(=O)NCC(=O)N[C@@H](CC(C)C)C(=O)N1CCC[C@H]1C(=O)N[C@@H](CS)C(=O)O (H-TVFTSWEEYLDWVGSGCRLPWNLQIGLPC-OH),EC50,[1],250 nM
same,Kd,[3],5.5 nM
same,IC50,[7],> 50000 nM
same,IC50,[8],20 nM
CC[C@H](C)[C@H](NC(=O)[C@H](CCCCNC(=N)N)NC(=O)[C@@H](NC(=O)[C@H](CC(C)C)NC(=O)[C@H](CC(N)=O)NC(=O)[C@@H](N)Cc1c[nH]c2ccccc12)C(C)C)C(=O)NCC(=O)N[C@@H](CC(C)C)C(=O)N[C@@H](CC(C)C)C(=O)N[C@@H](CCCNC(=N)N)C(=O)O (H-WNLV[hArg]IGLLR-OH),IC50,[7],> 50000 nM
CC(=O)N[C@H](C(=O)N[C@H](C(=O)N[C@@H](Cc1ccccc1)C(=O)N[C@H](C(=O)N[C@@H](CO)C(=O)N[C@@H](Cc1c[nH]c2ccccc12)C(=O)N[C@@H](CCC(=O)O)C(=O)N[C@@H](CCC(=O)O)C(=O)N[C@@H](C)C(=O)N[C@@H](CC(C)C)C(=O)N[C@@H](CC(=O)O)C(=O)N[C@@H](Cc1c[nH]c2ccccc12)C(=O)N[C@H](C(N)=O)C(C)C)[C@@H](C)O)C(C)C)[C@@H](C)O (Ac-TVFTSWEEALDWV-NH2),IC50,[5],27100 nM
same,inhibition,[9],89.9%
same,inhibition,[10],99%
COc1ccc2c(c1)CCN1Cc3c(ccc(OC)c3OS(=O)(=O)c3cccc(F)c3)C[C@H]21.Cl,Activity,[11],20.1%
same,Activity,[12],26.3%
same,Activity,[13],17.4%
CC[C@H](C)[C@H](NC(=O)[C@H](CCCCNC(=N)N)NC(=O)[C@@H](NC(=O)[C@H](CC(C)C)NC(=O)[C@H](CC(N)=O)NC(=O)[C@H](Cc1c[nH]c2ccccc12)NC(=O)[C@@H]1CCCN1C(=O)[C@H](CCSC)NC(=O)[C@H](CC(C)C)NC(=O)[C@@H](N)CC(=O)O)C(C)C)C(=O)NCC(=O)N[C@@H](CC(C)C)C(=O)N[C@@H](CC(C)C)C(=O)N[C@@H](CCCNC(=N)N)C(=O)O (H-DLMPWNLV[hArg]IGLLR-OH),IC50,[7],> 50000 nM
C[C@H]1NC(=O)[C@H](CNC(=O)CCOCCOCC[N+](C)(C)C)NC(=O)CCSCc2cc3cc(c2)-n2cc(nn2)Cn2cc(c4cc(F)ccc42)C[C@@H]2NC(=O)[C@H](Cc4cccc(c4)C/C=C/CCO[C@H]4CCN(C2=O)[C@@H]4C(=O)N[C@@H]([C@@H](C)O)C(=O)N[C@@H](Cc2ccc(O)cc2)C(=O)N2CCC[C@@]2(C)C(=O)NCCSC3)NC1=O,Activity,[14],65%
CC(C)C[C@H](C(=O)N1CCN([C@@H](CC(N)=O)C(=O)N[C@@H](CCCNC(=N)N)C(=O)C[C@H]2CCOC2=O)CC1)N1C(=O)N[C@@H](CC(=O)O)C1=O,Kd,[15],24800 nM
CC(=O)N[C@H](C(=O)N[C@H](C(=O)N[C@@H](Cc1ccccc1)C(=O)N[C@@H](CCCNC(=N)N)C(=O)N[C@@H](CO)C(=O)N[C@@H](Cc1c[nH]c2ccccc12)C(=O)N[C@@H](CCC(=O)O)C(=O)N[C@@H](CCC(=O)O)C(=O)N[C@@H](Cc1ccc(O)cc1)C(=O)N[C@@H](CC(C)C)C(=O)N[C@@H](CC(=O)O)C(=O)N[C@@H](Cc1ccc(O)cc1)C(=O)N[C@H](C(N)=O)C(C)C)C(C)C)[C@@H](C)O (Ac-TVFRSWEEYLDYV-NH2),IC50,[5],14500 nM
same,inhibition,[9],75.3%
same,inhibition,[10],88%
CC(C)C[C@H](N)C(=O)N1CCC[C@H]1C(=O)N[C@@H](CCCCN)C(=O)N[C@@H](Cc1c[nH]cn1)C(=O)N[C@@H](CO)C(=O)N[C@@H](C)C(=O)N[C@@H](CC(=O)O)C(=O)O (H-LPKHSAD-OH),IC50,[5],1700 nM
same,IC50,[6],175000 nM
CC[C@H](C)[C@H](NC(=O)[C@H](CCCCNC(=N)N)NC(=O)[C@@H](NC(=O)[C@H](CC(C)C)NC(=O)[C@H](CC(N)=O)NC(=O)[C@H](Cc1c[nH]c2ccccc12)NC(=O)C1(N)CCC(c2ccccc2)CC1)C(C)C)C(=O)NCC(=O)N[C@@H](CC(C)C)C(=O)N[C@@H](CC(C)C)C(=O)N[C@@H](CCCNC(=N)N)C(=O)O (stereo partly specified) (H-[X1]WNLV[hArg]IGLLR-OH),IC50,[8],700 nM
same,IC50,[4],140 nM
CC(C)C[C@H](NC(=O)[C@H](Cc1ccc(O)cc1)NC(=O)[C@@H](N)CC(C)C)C(=O)N1CCC[C@H]1C(=O)N[C@@H](CCCCN)C(=O)N[C@@H](Cc1c[nH]cn1)C(=O)N[C@@H](CO)C(=O)N[C@@H](CC(=O)O)C(=O)N[C@@H](CCCNC(=N)N)C(=O)N[C@@H](CC(=O)O)C(=O)O (H-LYLPKHSDRD-OH),IC50,[5],700 nM
CC[C@H](C)[C@H](NC(=O)[C@H](CCCCNC(=N)N)NC(=O)[C@H](CCCCN)NC(=O)[C@H](CC(C)C)NC(=O)[C@H](CC(N)=O)NC(=O)[C@H](Cc1c[nH]c2ccccc12)NC(=O)C1(N)CCC(c2ccccc2)CC1)C(=O)NCC(=O)N[C@@H](CC(C)C)C(=O)N[C@@H](CC(C)C)C(=O)N[C@@H](CCCNC(=N)N)C(=O)O (stereo partly specified) (H-[X1]WNLK[hArg]IGLLR-OH),inhibition,[1],50%
same,IC50,[2],1830 nM
same,Kd,[3],390 nM
same,IC50,[7],720 nM
same,IC50,[4],40 nM
CC(C)[C@@H]1NC(=O)[C@H](Cc2ccccc2)NC(=O)CSC[C@@H](C(=O)NCC(N)=O)NC(=O)[C@@H]2CCCN2C(=O)[C@H](CCCNC(=N)N)NC(=O)[C@H](CC(=O)O)NC(=O)[C@H](C)N(C)C(=O)[C@H](Cc2ccc(-c3ccccc3)cc2)NC(=O)[C@H](C)N(C)C(=O)[C@H](Cc2ccc(-c3ccccc3)cc2)NC(=O)[C@H]([C@@H](C)O)NC(=O)[C@H]([C@@H](C)O)NC(=O)[C@H](CO)NC1=O,Kd,[3],0.3 nM
same,EC50,[16],106 nM
same,Kd,[17],1 nM
